Results on five molecules are retold here after patent US20250250286A1, “FUSED PYRIMIDINE DERIVATIVES AS KRAS ONCOPROTEIN INHIBITORS” (BETA PHARMA, INC., priority 2021, published 2025).

Counter-ions that a name gives are not always drawn.

T1 sequence (P01116 2-169 G12D): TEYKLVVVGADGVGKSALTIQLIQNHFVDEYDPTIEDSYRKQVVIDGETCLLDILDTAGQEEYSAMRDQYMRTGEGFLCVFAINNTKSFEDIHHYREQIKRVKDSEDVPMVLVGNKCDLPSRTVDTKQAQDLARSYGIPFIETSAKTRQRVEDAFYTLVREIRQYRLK

This test concerns the target T1, KRAS G12D (Homo sapiens, UniProt P01116, G12D).
T1 construct: Recombinant human KRAS G12D (aa 2-169, expressed in E. coli); His-tag (TEV cleavable) (N); purchased Reaction Biology Corporation (RBC) SOS1: RBC cat #MSC-11-502; KRAS G12D: not given; host or cells: E. coli
Nature of the test: KRAS G12D/SOS1 Nucleotide Exchange Assay (SOS1-mediated Bodipy-GDP to GTP exchange). Particulars: rate constant method (plateau = 0), Bodipy-GDP/KRAS G12D as substrate, 0.5% DMSO, 30 min pre-incubation at RT. In kind it is biochemical. As to the method: The compound pre-incubation time was 30 min at RT and the curve fits were performed when the activities at the highest concentration of compounds were less than 65%.
Reaction Buffer: 40 mM HEPES 7.4, 10 mM MgCl2, 1 mM DTT 0.002% Triton ×100, 0.5% DMSO.
KRAS is pre-loaded with a 5-fold excess of Bodipy-GDP. The excess Bodipy-GDP is separated from loaded protein using a spin desalting column.
• 1. Deliver 10 μL of 1.5× KRAS solution in freshly prepared reaction buffer to reaction wells. • 2. Deliver compounds in 100% DMSO into buffer using acoustic technology (Echo550; nanoliter range). • 3. Incubate compounds with KRAS for 30 minutes at room temperature. • 4. Prepare 3× (SOS1+GTP) solution in reaction buffer. • 5. Deliver 5 μL of SOS1+GTP solution into reactions wells (deliver GTP only to column 1 for no SOS1 control). • 6.
Data Analysis: The fluorescence data was normalized using the equation below and fitted to “one phase exponential decay” equation using GraphPad prism software. The plateau was fixed to zero (use for non-covalent inhibitors) and rate ×1000 was used to calculate the IC50 values.
[formula] • where Yraw is defined as fluorescence at time t, Ao is the average initial fluorescence with no SOS1, and M is the minimum fluorescence at the end of the reaction at the maximum SOS1.
The background subtracted signals (no SOS1 protein wells were used as background) were converted to % activity relative to DMSO controls. Data was analyzed using GraphPad Prism 4 with “sigmoidal dose-response (variable slope)”; 4 parameters with Hill Slope. The constraints were bottom (constant equal to 0) and top (must be less than 120).
In general, IC50 refers to the concentration needed to halve the response being measured. A low value points to inhibition by little substance. On to `Clc1cccc2cccc(-c3cnc4c(N5C[C@H]6CC[C@@H](C5)N6)nc(OCC56CCCN5CCC6)nc4c3)c12` [Example 1, 4-((1R,5S)-3,8-Diazabicyclo[3.2.1]octan-3-yl)-7-(8-chloronaphthalen-1-yl)-2-((tetrahydro-1H-pyrrolizin-7a(5H)-yl)methoxy)pyrido[3,2-d]pyrimidine hydrochloride (1:3)], for which the half-maximal inhibitory concentration (IC50) turned out to be 610 nM.

Consider `C#Cc1c(F)ccc2cc(O)cc(-c3cnc4c(N5C[C@H]6CC[C@@H](C5)N6)nc(OC[C@@]56CCCN5C[C@H](F)C6)nc4c3)c12` [Example 5, 4-(4-((1R,5S)-3,8-Diazabicyclo[3.2.1]octan-3-yl)-2-(((2R,7aS)-2-fluorotetrahydro-1H-pyrrolizin-7a(5H)-yl)methoxy)pyrido[3,2-d]pyrimidin-7-yl)-5-ethynyl-6-fluoronaphthalen-2-ol], for which the concentration for half-maximal inhibition (IC50) came out at 28 nM.

The molecule `Clc1cccc2cccc(-c3ccc4c(N5C[C@H]6CC[C@@H](C5)N6)nc(OCC56CCCN5CCC6)nc4n3)c12` [Example 4, 4-((1R,5S)-3,8-diazabicyclo[3.2.1]octan-3-yl)-7-(8-chloronaphthalen-1-yl)-2-((tetrahydro-1H-pyrrolizin-7a(5H)-yl)methoxy)pyrido[2,3-d]pyrimidine] displayed an IC50 of 8600 nM.

`CN1CCC[C@H]1COc1nc(N2C[C@H]3CC[C@@H](C2)N3)c2ccc(-c3cccc4cccc(Cl)c34)nc2n1` [Example 3, 4-((1R,5S)-3,8-Diazabicyclo[3.2.1]octan-3-yl)-7-(8-chloronaphthalen-1-yl)-2-(((S)-1-methylpyrrolidin-2-yl)methoxy)pyrido[2,3-d]pyrimidine] gave an IC50 greater than 10000 nM.

Molecule `Oc1cc(-c2cnc3c(N4C[C@H]5CC[C@@H](C4)N5)nc(OCC45CCCN4CCC5)nc3c2)c2ccccc2c1` [Example 2, 4-(4-((1R,5S)-3,8-Diazabicyclo[3.2.1]octan-3-yl)-2-((tetrahydro-1H-pyrrolizin-7a(5H)-yl)methoxy)pyrido[3,2-d]pyrimidin-7-yl)naphthalen-2-ol] yielded a concentration for half-maximal inhibition (IC50) of 35 ± 5.7 nM.
